Biological target: T1, human ENT1 (Homo sapiens, UniProt Q99808)
T1 sequence (Q99808 1-456): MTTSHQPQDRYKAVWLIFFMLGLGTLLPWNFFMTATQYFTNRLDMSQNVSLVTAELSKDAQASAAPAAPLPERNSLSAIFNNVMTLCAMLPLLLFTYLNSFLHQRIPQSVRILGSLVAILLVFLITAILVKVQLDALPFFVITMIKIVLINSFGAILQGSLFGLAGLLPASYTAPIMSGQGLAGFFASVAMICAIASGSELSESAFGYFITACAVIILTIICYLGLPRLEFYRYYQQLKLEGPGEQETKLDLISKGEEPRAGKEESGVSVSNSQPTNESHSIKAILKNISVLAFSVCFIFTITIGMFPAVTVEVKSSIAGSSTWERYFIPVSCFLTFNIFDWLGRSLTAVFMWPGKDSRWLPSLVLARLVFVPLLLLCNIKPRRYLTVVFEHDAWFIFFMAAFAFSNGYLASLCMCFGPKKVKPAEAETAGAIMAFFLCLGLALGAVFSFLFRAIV
Assay: ENT1 binding assay (competition with Sahenta-DY647 on JAR cells)
Set-up: JAR cells expressing ENT1 were bought from ATCC; host or cells: JAR cells
Conditions: binned IC50
How it was run: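 JAR cells were incubated with test compounds and the fluorescent ligand Sahenta-DY647 in competition. Plates were washed twice by centrifugation (4 min, 400 rcf, 4 °C). Binding potency was derived from the final fluorescence.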

SMILES | IC50 [nM]
COCCN(CCOC)c1nc(N2CCC(OC)CC2)c2nc(N(CCOC)Cc3ccc(OC)c(OC)c3OC)nc(N3CCC(OC)CC3)c2n1 [Compound 183, N2,N2,N6-tris(2-methoxyethyl)-4,8-bis(4-methoxypiperidin-1-yl)-N6-(2,3,4-trimethoxybenzyl)pyrimido[5,4-d]pyrimidine-2,6-diamine] | < 100
COCCN(CCOC)c1nc(N2CCC(OC)CC2)c2nc(N(CCO)Cc3ccc(OC)c(OC)c3OC)nc(N3CCC(OC)CC3)c2n1 [Compound 185, 2-((6-(bis(2-methoxyethyl)amino)-4,8-bis(4-methoxypiperidin-1-yl)pyrimido[5,4-d]pyrimi<din-2-yl)(2,3,4-trimethoxybenzyl)amino)ethanol] | < 100
COCCN(CCOC)c1nc(N2CCN(C)C(=O)C2)c2nc(N(CCOC)CCOC)nc(N3CCN(C)C(=O)C3)c2n1 [Compound 187, 4,4′-(2,6-bis(bis(2-methoxyethyl)amino)pyrimido[5,4-d]pyrimidine-4,8-diyl)bis(1-methylpiperazin-2-one)] | 100 to 500
COCCN(CCOC)c1nc(N2CCN(C)C(=O)C2)c2nc(N(CCOC)CCOC)nc(N3CCS(=O)(=O)CC3)c2n1 [Compound 188, 4-(2,6-bis(bis(2-methoxyethyl)amino)-8-(1,1-dioxidothiomorpholino)pyrimido[5,4-d]pyrimidin-4-yl)-1-methylpiperazin-2-one] | 100 to 500
COCCN(CCOC)c1nc(N2CC(O)(C(F)(F)F)C2)c2nc(N(CCOC)CCOC)nc(N3CCN(C)C(=O)C3)c2n1 [Compound 189, 4-(2,6-bis(bis(2-methoxyethyl)amino)-8-(3-hydroxy-3-(trifluoromethyl)azetidin-1-yl)pyrimido[5,4-d]pyrimidin-4-yl)-1-methylpiperazin-2-one] | 100 to 500
COCCN(CCOC)c1nc(N2CCN(C)C(=O)C2)c2nc(N(CCOC)CCOC)nc(NCc3ccccc3)c2n1 [Compound 190, 4-(8-(benzylamino)-2,6-bis(bis(2-methoxyethyl)amino)pyrimido[5,4-d]pyrimidin-4-yl)-1-methylpiperazin-2-one] | < 100
CCCN(C)c1nc(N(CCOC)CCOC)nc2c(N3CCN(C)C(=O)C3)nc(N(CCOC)CCOC)nc12 [Compound 191, 4-(2,6-bis(bis(2-methoxyethyl)amino)-8-(methyl(propyl)amino)pyrimido[5,4-d]pyrimidin-4-yl)-1-methylpiperazin-2-one] | 100 to 500
COCCN(CCOC)c1nc(N2CC(O)(C(F)(F)F)C2)c2nc(N(CCOC)CCOC)nc(N3CCS(=O)(=O)CC3)c2n1 [Compound 192, 4-(2,6-bis(bis(2-methoxyethyl)amino)-8-(3-hydroxy-3-(trifluoromethyl)azetidin-1-yl)pyrimido[5,4-d]pyrimidin-4-yl)thiomorpholine 1,1-dioxide] | 100 to 500
COCCN(CCOC)c1nc(N2CC(O)(C(F)(F)F)C2)c2nc(N(CCOC)CCOC)nc(N3CCn4ncnc4C3)c2n1 [Compound 193, 1-(2,6-bis(bis(2-methoxyethyl)amino)-8-(5,6-dihydro-[1,2,4]triazolo[1,5-a]pyrazin-7(8H)-yl)pyrimido[5,4-d]pyrimidin-4-yl)-3-(trifluoromethyl)azetidin-3-ol] | 100 to 500
COCCN(CCOC)c1nc(N2CCC(F)(F)CC2)c2nc(N(CCOC)CCOC)nc(N3CCC(F)(F)CC3)c2n1 [Compound 195, 4,8-bis(4,4-difluoropiperidin-1-yl)-N2,N2,N6,N6-tetrakis(2-methoxyethyl)pyrimido[5,4-d]pyrimidine-2,6-diamine] | 100 to 500
COCCN(CCOC)c1nc(N2CCN(c3ncn(C)n3)CC2)c2nc(N(CCOC)CCOC)nc(N3CCC(OC)CC3)c2n1 [Compound 196, N2,N2,N6,N6-tetrakis(2-methoxyethyl)-4-(4-methoxypiperidin-1-yl)-8-(4-(1-methyl-1H-1,2,4-triazol-3-yl)piperazin-1-yl)pyrimido[5,4-d]pyrimidine-2,6-diamine] | 100 to 500
COCCN(CCOC)c1nc(N2CCC(OC)CC2)c2nc(N(CCOC)CCC(N)=O)nc(N3CCC(OC)CC3)c2n1 [Compound 197, 3-((6-(bis(2-methoxyethyl)amino)-4,8-bis(4-methoxypiperidin-1-yl)pyrimido[5,4-d]pyrimidin-2-yl)(2-methoxyethyl)amino)propanamide] | 500 to 1000
CCN1CCN(c2nc(N(CCOC)CCOC)nc3c(N4CCC(OC)CC4)nc(N(CCOC)CCOC)nc23)CC1=O [Compound 198, 4-(2,6-bis(bis(2-methoxyethyl)amino)-8-(4-methoxypiperidin-1-yl)pyrimido[5,4-d]pyrimidin-4-yl)-1-ethylpiperazin-2-one] | 100 to 500
CCOCCN(CCOCC)c1nc(N2CCN(C)C(=O)C2)c2nc(N(CCOCC)CCOCC)nc(N3CCC(OC)CC3)c2n1 [Compound 199, 4-(2,6-bis(bis(2-ethoxyethyl)amino)-8-(4-methoxypiperidin-1-yl)pyrimido[5,4-d]pyrimidin-4-yl)-1-methylpiperazin-2-one] | < 100
COCCN(CCOC)c1nc(N2CCC(F)(F)CC2)c2nc(N(CCOC)CCOC)nc(N3CCC(OC)CC3)c2n1 [Compound 200, 4-(4,4-difluoropiperidin-1-yl)-N2,N2,N6,N6-tetrakis(2-methoxyethyl)-8-(4-methoxypiperidin-1-yl)pyrimido[5,4-d]pyrimidine-2,6-diamine] | < 100
COCCN(CCOC)c1nc(N2CCC(C)(OC)CC2)c2nc(N(CCOC)CCOC)nc(N3CCC(C)(OC)CC3)c2n1 [Compound 201, 4,8-bis(4-methoxy-4-methylpiperidin-1-yl)-N2,N2,N6,N6-tetrakis(2-methoxyethyl)pyrimido[5,4-d]pyrimidine-2,6-diamine] | 100 to 500
COCCOC1CCN(c2nc(N(CCOC)CCOC)nc3c(N4CCC(OC)CC4)nc(N(CCOC)CCOC)nc23)CC1 [Compound 202, 4-(4-(2-methoxyethoxy)piperidin-1-yl)-N2,N2,N6,N6-tetrakis(2-methoxyethyl)-8-(4-methoxypiperidin-1-yl)pyrimido[5,4-d]pyrimidine-2,6-diamine] | 500 to 1000
COCCN(CCOC)c1nc(N2CCN(C)C(=O)C2)c2nc(N(CCOC)CCOC)nc(NCc3cccc(C(N)=O)c3)c2n1 [Compound 203, 3-(((2,6-bis(bis(2-methoxyethyl)amino)-8-(4-methyl-3-oxopiperazin-1-yl)pyrimido[5,4-d]pyrimidin-4-yl)amino)methyl)benzamide] | 100 to 500
COCCN(CCOC)c1nc(N2CCN(C)C(=O)C2)c2nc(N(CCOC)CCOC)nc(NCc3cccc(S(N)(=O)=O)c3)c2n1 [Compound 204, 3-(((2,6-bis(bis(2-methoxyethyl)amino)-8-(4-methyl-3-oxopiperazin-1-yl)pyrimido[5,4-d]pyrimidin-4-yl)amino)methyl)benzenesulfonamide] | 100 to 500
COCCN(CCOC)c1nc(N2CCN(C)C(=O)C2)c2nc(N(CCOC)CCOC)nc(NCc3cccc(C#N)c3)c2n1 [Compound 205, 3-(((2,6-bis(bis(2-methoxyethyl)amino)-8-(4-methyl-3-oxopiperazin-1-yl)pyrimido[5,4-d]pyrimidin-4-yl)amino)methyl)benzonitrile] | < 100
COCCN(CCOC)c1nc(N2CCN(C)C(=O)C2)c2nc(N(CCOC)CCOC)nc(N3CCC(F)(F)CC3)c2n1 [Compound 206, 4-(2,6-bis(bis(2-methoxyethyl)amino)-8-(4,4-difluoropiperidin-1-yl)pyrimido[5,4-d]pyrimidin-4-yl)-1-methylpiperazin-2-one] | < 100

From patent US20230146675A1, “PYRIMIDO[5,4-d]PYRIMIDINE DERIVATIVES AS ENT INHIBITORS FOR THE TREATMENT OF CANCERS, AND COMBINATION THEREOF WITH ADENOSINE RECEPTOR ANTAGONISTS” (ITEOS BELGIUM SA, priority 2020, published 2023)
